The source of these data is patent US7846935B2, “Furo[3,2-B]pyrrol-3-one derivatives and their use as cysteinyl proteinase inhibitors” (Amura Therapeutics Limited, priority 2006, dated 2010).

The subject of data set [1] is human osteoclasts. Kind of data set: Human osteoclast resorption assay. The data set is classed as cell-based. Here is the method:
Bone resorption was studied using a model where human osteoclast precursor cells were cultured on bovine bone slices for 9 days and allowed to differentiate into bone-resorbing osteoclasts. The formed mature osteoclasts were then allowed to resorb bone. The assay was performed by Pharmatest Services Ltd, Itainen Pitkakatu 4C, Turku, Finland. After the culture period, bone collagen degradation products were quantified from the culture medium as an index of bone resorption. Inhibitor compounds were added into the cell cultures after the differentiation period and their effects on the resorbing activity of mature osteoclasts were determined. The studies included a baseline group without added compounds and a positive control group where a potent cathepsin K inhibitor E-64 was added.
Human peripheral blood monocytes were suspended to culture medium and allowed to attach to bovine bone slices. The bone slices were transferred into 96-well tissue culture plates containing culture medium with appropriate amounts of important growth factors favouring osteoclast differentiation, including M-CSF, RANK-ligand and TGF-β. The cells were incubated in a CO2 incubator in humidified atmosphere of 95% air and 5% carbon dioxide at 37° C. At day 7 when osteoclast differentiation was complete, the culture medium was replaced with culture medium containing conditions favouring osteoclast activity. The cell culture was continued for an additional 2 days, during which the formed mature osteoclasts were allowed to resorb bone in the presence of vehicle, control inhibitor (E64) or test compounds. At the end of the culture, bone collagen degradation products released into the culture medium were determined using a commercially available ELISA method (CrossLaps® for culture, Nordic Bioscience, Herlev, Denmark) as an index of bone resorption (see Bagger, Y. Z. et al, J. Bone. Miner. Res. 14 (suppl. 1), S370).

Data set [2] in a line: Liver microsomal incubations. Conditions: human liver microsomes, 25 μM, NADPH. The data set is classed as in vitro ADME.
Description: All liver microsome incubations were carried out in 50 mM potassium phosphate buffer at pH 7.4, with a final microsomal protein concentration of 0.5 mg/mL. […] In brief, compounds were added to the incubation buffer along with the liver microsomes and incubated at 37° C. for 10 minutes. The reaction was then initiated by the addition of NADPH, previously dissolved in incubation buffer, to give a final concentration of 1 mM and re-incubated at 37° C. Aliquots were removed at 2 and 60 minutes and quenched with an equal volume of cold acetonitrile. After mixing vigorously, the precipitated protein matter was removed by filtration (Multiscreen Solvinert filter plates, Millipore, Bedford, Mass., USA) and the filtrate analysed by reverse phase HPLC with mass spectrometric detection, using single ion monitoring of the [M+H]^+ species. Metabolic turnover was determined by comparison of peak areas from the ion chromatograms of the parent compound at 2 and 60 minutes and expressed as percent remaining at 1 hour.
Data set [3] is described as follows: Plasma incubations. It counts as in vitro ADME. Conditions: 37° C., 25 μM.
Description: Aliquots were removed at 2 and 60 minutes and quenched with an equal volume of cold acetonitrile. After mixing vigorously, the precipitated protein matter was removed by filtration (Multiscreen Solvinert filter plates, Millipore, Bedford, Mass., USA) and the filtrate analysed by reverse phase HPLC with mass spectrometric detection, using single ion monitoring of the [M+H]^+ species. Metabolic turnover was determined by comparison of peak areas from the ion chromatograms of the parent compound at 2 and 60 minutes and expressed as percent remaining at 1 hour.
For data set [4], the system named is rat osteoclasts. Kind of data set: Rat osteoclast resorption assay. The data set is classed as cell-based. Here is the method:
Bone resorption was studied using a model where mature osteoclasts derived from rat bone were cultured on bovine bone slices for 3 days and allowed to resorb bone in the presence of inhibitor, positive control (E-64) or vehicle. More specifically, tibia, femori and humeri were removed from 1 day old rat pups. The endosteal surfaces of the bones were scraped with a scapelto release osteoclasts into the culture medium and the osteoclasts were allowed to attach to bovine bone slices. After the culture period, bone collagen degradation products were quantified from the culture medium as an index of bone resorption. The assay was performed by Pharmatest Services Ltd, Itäinen Pitkakatu 4C, Turku, Finland.

Data set [5] concerns the target T1, Human recombinant cathepsin K (Homo sapiens, UniProt P43235).
T1 construct: B. Turk, Josef, Stefan Institute, Ljubljana, Slovenia
T1 sequence (P43235 115-329): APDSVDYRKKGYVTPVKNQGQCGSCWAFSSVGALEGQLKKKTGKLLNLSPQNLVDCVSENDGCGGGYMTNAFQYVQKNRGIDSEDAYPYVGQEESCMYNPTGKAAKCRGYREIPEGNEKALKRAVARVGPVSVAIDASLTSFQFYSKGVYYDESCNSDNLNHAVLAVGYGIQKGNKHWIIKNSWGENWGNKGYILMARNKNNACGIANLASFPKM
Kind of data set: In vitro cathepsin Ki inhibition measurements. It counts as biochemical. The conditions noted are these: Table 1, read-out: In vitro Ki (nM) vs Cath K. The method, then: Stock solutions of substrate or inhibitor were made up to 10 mM in 100% dimethylsulfoxide (DMSO) (Rathburns, Glasgow, U.K.) and diluted as appropriately required. In all cases the DMSO concentration in the assays was maintained at less than 1% (vol./vol.). The equilibrium inhibition constants (Ki^ss) for each compound were measured under steady-state conditions monitoring enzyme activity as a function of inhibitor concentration. The values were calculated on the assumption of pure competitive behaviour (Cornish-Bowden, A. Fundamentals of enzyme kinetics Portland Press; 1995, 93-128). Human recombinant cathepsin K (0.25 nM final; B. Turk, Josef, Stefan Institute, Ljubljana, Slovenia), was routinely assayed in 100 mM sodium acetate; pH 5.5 containing 1 mM EDTA, 10 mM L-cysteine and 1.8 μM Z-Leu-Arg-AMC ([S]=KM).
The apparent inhibition constant (Ki) for each compound was determined on the basis that inhibition was reversible and occurred by a pure-competitive mechanism. The Ki values were calculated, from the dependence of enzyme activity as a function of inhibitor concentration, by direct regression analysis (Prism v 3.02) using Equation 2 (Cornish-Bowden, A., 1995).
In situations where the apparent dissociation constant (Ki^app) approached the enzyme concentrations, the Ki^app values were calculated using a quadratic solution in the form described by Equation 3 (Morrison, J. F. Trends Biochem. Sci., 7, 102-105, 1982; Morrison, J. F. Biochim. Biophys. Acta, 185, 269-286, 1969; Stone, S. R. and Hofsteenge, J. Biochemistry, 25, 4622-4628, 1986).
Curves were fitted by non-linear regression analysis (Prism) using a fixed value for the enzyme concentration. Equation 4 was used to account for the substrate kinetics, where ‘Ki’ is the inhibition constant, ‘[So]’ is the initial substrate concentration and ‘KM^app’ is the apparent macroscopic binding (Michaelis) constant for the substrate (Morrison, 1982).

A short description of data set [6]: LogD determinations. The data set is classed as physicochemical. The conditions noted are these: 1-octanol/PBS; PBS pH 7.4/1-octanol, ion-count method.
Description: LogD(PBS) determinations were performed in 96 well microtitre plates using a miniaturised “shake-flask” method. […] The plates were then capped and mixed vigorously for 1 hour on a microtitre plate shaker, after which they were left to stand, allowing the PBS and octanol phases to separate. The PBS layer was analysed by reverse phase HPLC with mass spectrometric detection, using single ion monitoring of the [M+H]^+ species.
Where AUCstd and AUCpbs are the peak areas from the standard and test ion chromatograms respectively.
Where [7] appears, read: human osteoclast bone resorption, read-out: Cell-based % Inh. @ 1 μM Human.
Setting [8] is: human osteoclast, read-out: inhibition of human osteoclast activity.
[9] abbreviates: 1 μM, rat osteoclast bone resorption, read-out: Cell-based % Inh. @ 1 μM Rat.
The mark [10] stands for this setting: rat osteoclast, 1 μM per table 1, read-out: rat osteoclast data (inhibition).

Read-outs that look alike come from different tables or passages of the source.

Turning to `CC(C)C[C@H](NC(=O)c1ccc(N2CCN(C)CC2)cc1)C(=O)N1CC[C@H]2OCC(=O)[C@H]21` [EXAMPLE 1, 4-(4-methylpiperazin-1-yl)-N—((S)-4-methyl-1-oxo-1-((3aS,6aR)-3-oxodihydro-2H-furo[3,2-b]pyrrol-4(5H,6H,6aH)-yl)pentan-2-yl)benzamide, reference compound], the inhibition at 1 µM in data set [1] (setting [7]) turned out to be 55%. Moreover, the “HLM % rem. @ 1 h” value in data set [2] was found to be 95%. Moreover, in data set [3], the “Human Plasma Stability % rem. @ 1 h” value worked out at 95%.

Consider `CCN1CCN(c2ccc(C(=O)N[C@@H](CC(C)C)C(=O)N3CC[C@H]4OCC(=O)[C@H]43)cc2)CC1` [EXAMPLE 2, 4-(4-ethylpiperazin-1-yl)-N—((S)-4-methyl-1-oxo-1-((3aS,6aR)-3-oxodihydro-2H-furo[3,2-b]pyrrol-4(5H,6H,6aH)-yl)pentan-2-yl)benzamide], for which the results for the inhibition at 1 µM in data set [1] (setting [7]), in data set [1] (setting [8]) and in data set [4] (setting [9]) were 58%, 58% and 40%, respectively. The “HLM % rem. @ 1 h” value in data set [2] is listed as 88%. In data set [3], the “Human Plasma Stability % rem. @ 1 h” value came to 93%. For the same molecule, in data set [5], the Ki is 15 nM. The same molecule gave a logD in data set [6] of 0.74.

On to `CCCN1CCN(c2ccc(C(=O)N[C@@H](CC(C)C)C(=O)N3CC[C@H]4OCC(=O)[C@H]43)cc2)CC1` [EXAMPLE 3, N—((S)-4-methyl-1-oxo-1-((3aS,6aR)-3-oxo-dihydro-2H-furo[3,2-b]pyrrol-4(5H,6H,6aH)-yl)pentan-2-yl)-4-(4-propylpiperazin-1-yl)benzamide], for which the inhibition at 1 µM in data set [1] (setting [7]) was 73%; in data set [1] (setting [8]) it was 73 to 82%; in data set [4] (setting [9]), 65%; in data set [4] (setting [10]), 65%. In data set [2], the “HLM % rem. @ 1 h” value is 83%. For the same molecule, the “Human Plasma Stability % rem. @ 1 h” value in data set [3] stood at 89%. Further, the Ki in data set [5] is 18 nM. The logD in data set [6] amounted to 1.66.

In the case of `CC(C)C[C@H](NC(=O)c1ccc(N2CCN(C(C)C)CC2)cc1)C(=O)N1CC[C@H]2OCC(=O)[C@H]21` [EXAMPLE 4, 4-(4-isopropylpiperazin-1-yl)-N—((S)-4-methyl-1-oxo-1-((3aS,6aR)-3-oxodihydro-2H-furo[3,2-b]pyrrol-4(5H,6H,6aH)-yl)pentan-2-yl)benzamide], the inhibition at 1 µM is 74% in data set [1] (setting [7]), 73 to 82% in data set [1] (setting [8]), 25% in data set [4] (setting [9]) and 25% in data set [4] (setting [10]). In addition, the “HLM % rem. @ 1 h” value in data set [2] came out at 88%. Besides, in data set [3], the “Human Plasma Stability % rem. @ 1 h” value is reported as 91%. In addition, the Ki in data set [5] came out at 19 nM. Besides, the logD in data set [6] amounted to 1.21.

For the molecule `COCCN1CCN(c2ccc(C(=O)N[C@@H](CC(C)C)C(=O)N3CC[C@H]4OCC(=O)[C@H]43)cc2)CC1` [EXAMPLE 5, 4-(4-(2-methoxyethyl)piperazin-1-yl)-N—((S)-4-methyl-1-oxo-1-((3aS,6aR)-3-oxodihydro-2H-furo[3,2-b]pyrrol-4(5H,6H,6aH)-yl)pentan-2-yl)benzamide], the inhibition at 1 µM stood at 57% in data set [1] (setting [7]), 57% in data set [1] (setting [8]), 65% in data set [4] (setting [9]) and 65% in data set [4] (setting [10]). In data set [2], the “HLM % rem. @ 1 h” value is 90%. Also, in data set [3], the “Human Plasma Stability % rem. @ 1 h” value was 98%. Also, in data set [5], the Ki was determined as 29 nM. The molecule further yielded a logD in data set [6] of 0.9.

As to `CC(C)C[C@H](NC(=O)c1ccc(N2CCN(C3CC3)CC2)cc1)C(=O)N1CC[C@H]2OCC(=O)[C@H]21` [EXAMPLE 6, 4-(4-cyclopropylpiperazin-1-yl)-N—((S)-4-methyl-1-oxo-1-((3aS,6aR)-3-oxodihydro-2H-furo[3,2-b]pyrrol-4(5H,6H,6aH)-yl)pentan-2-yl)benzamide], the inhibition at 1 µM in data set [1] (setting [7]) was 74%; in data set [1] (setting [8]), 73 to 82%; in data set [4] (setting [9]), 22%; in data set [4] (setting [10]), 22%. Further, in data set [2], the “HLM % rem. @ 1 h” value was 83%. For the same molecule, in data set [3], the “Human Plasma Stability % rem. @ 1 h” value came out at 93%. In data set [5], the Ki is 4 nM. In data set [6], this molecule yielded a logD of 1.88.

Turning to `CC(C)C[C@H](NC(=O)c1ccc(N2CCN(C3CCC3)CC2)cc1)C(=O)N1CC[C@H]2OCC(=O)[C@H]21` [EXAMPLE 7, 4-(1-cyclobutylpiperazin-4-yl)-N—((S)-4-methyl-1-oxo-1-((3aS,6aR)-3-oxodihydro-2H-furo[3,2-b]pyrrol-4(5H,6H,6aH)-yl)pentan-2-yl)benzamide], the inhibition at 1 µM is 82% in data set [1] (setting [7]), 73 to 82% in data set [1] (setting [8]), 40% in data set [4] (setting [9]) and 40% in data set [4] (setting [10]). Besides, in data set [2], the “HLM % rem. @ 1 h” value was 81%. In data set [3], the “Human Plasma Stability % rem. @ 1 h” value came to 92%. Also, in data set [5], the Ki was determined as 3 nM. In data set [6], the logD was found to be 1.88.

`COCCN1CCC(c2ccc(C(=O)N[C@@H](CC(C)C)C(=O)N3CC[C@H]4OCC(=O)[C@H]43)cc2)CC1` [EXAMPLE 8, 4-(1-(2-methoxyethyl)piperidin-4-yl)-N—((S)-4-methyl-1-oxo-1-((3aS,6aR)-3-oxodihydro-2H-furo[3,2-b]pyrrol-4(5H,6H,6aH)-yl)pentan-2-yl)benzamide]: the inhibition at 1 µM amounted to 23% in data set [1] (setting [7]), 23% in data set [1] (setting [8]), 52% in data set [4] (setting [9]) and 52% in data set [4] (setting [10]). Moreover, in data set [2], the “HLM % rem. @ 1 h” value turned out to be 88%. Also, the “Human Plasma Stability % rem. @ 1 h” value in data set [3] is recorded as 98%. Also, the Ki in data set [5] stood at 36 nM. Also, in data set [6], the logD is 0.61.

`CC(C)C[C@H](NC(=O)c1ccc(C2CCN(C3CC3)CC2)cc1)C(=O)N1CC[C@H]2OCC(=O)[C@H]21` [compound 9, 4-(1-cyclopropylpiperidin-4-yl)-N—((S)-4-methyl-1-oxo-1-((3aS,6aR)-3-oxodihydro-2H-furo[3,2-b]pyrrol-4(5H,6H,6aH)-yl)pentan-2-yl)benzamide]: the “HLM % rem. @ 1 h” value in data set [2] came out at 82%. In data set [3], the “Human Plasma Stability % rem. @ 1 h” value is on record as 93%. Besides, the Ki in data set [5] was found to be 8 nM. Moreover, the logD in data set [6] stood at 1.99.

With `CC(C)C[C@H](NC(=O)c1ccc(C2CCN(C3CCC3)CC2)cc1)C(=O)N1CC[C@H]2OCC(=O)[C@H]21` [compound 10, 4-(1-cyclobutylpiperidin-4-yl)-N—((S)-4-methyl-1-oxo-1-((3aS,6aR)-3-oxodihydro-2H-furo[3,2-b]pyrrol-4(5H,6H,6aH)-yl)pentan-2-yl)benzamide], the “HLM % rem. @ 1 h” value in data set [2] is 83%. In addition, the “Human Plasma Stability % rem. @ 1 h” value in data set [3] is given as 90%. The Ki in data set [5] was 5 nM. The same molecule came in with a logD in data set [6] of 0.95.
